In patent publication US9290511B2, “Thieno-pyrimidines, useful as potassium channel inhibitors” (XENTION LIMITED, priority 2011, dated 2016) one finds IC50 data, which are given here for 18 compounds.

This experiment has as its target T1, Kir3.1/3.4 (Rattus norvegicus, UniProt P48548+P63251).
T1 construct: expressed in transfected cells
T1 sequence (P63251 1-501): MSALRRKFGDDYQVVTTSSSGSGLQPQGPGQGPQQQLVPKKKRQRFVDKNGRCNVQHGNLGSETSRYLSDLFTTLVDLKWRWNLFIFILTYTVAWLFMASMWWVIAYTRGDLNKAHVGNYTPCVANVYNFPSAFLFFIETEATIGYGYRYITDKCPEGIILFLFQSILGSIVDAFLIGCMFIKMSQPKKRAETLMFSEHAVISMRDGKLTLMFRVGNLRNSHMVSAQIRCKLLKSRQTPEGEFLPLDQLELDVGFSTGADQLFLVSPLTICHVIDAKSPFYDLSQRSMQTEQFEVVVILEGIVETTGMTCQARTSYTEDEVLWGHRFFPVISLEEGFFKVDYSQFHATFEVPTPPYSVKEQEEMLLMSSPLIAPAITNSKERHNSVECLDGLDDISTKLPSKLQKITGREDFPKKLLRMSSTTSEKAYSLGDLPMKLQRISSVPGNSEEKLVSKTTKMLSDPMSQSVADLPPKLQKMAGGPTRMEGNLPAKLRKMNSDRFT
T1 sequence (P48548 1-419): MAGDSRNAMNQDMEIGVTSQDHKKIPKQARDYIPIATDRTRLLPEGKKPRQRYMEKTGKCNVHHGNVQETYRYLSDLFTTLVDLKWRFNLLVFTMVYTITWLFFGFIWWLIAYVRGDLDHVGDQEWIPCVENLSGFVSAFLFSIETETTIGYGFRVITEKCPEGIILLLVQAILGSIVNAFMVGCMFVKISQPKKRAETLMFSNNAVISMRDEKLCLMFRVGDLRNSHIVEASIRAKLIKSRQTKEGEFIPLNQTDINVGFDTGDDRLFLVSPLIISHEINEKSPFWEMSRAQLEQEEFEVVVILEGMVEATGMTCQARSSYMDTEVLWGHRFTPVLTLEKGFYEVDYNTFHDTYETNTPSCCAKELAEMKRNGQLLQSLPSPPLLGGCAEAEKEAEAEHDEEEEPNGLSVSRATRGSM
The experiment is described as follows: Kir3.1/3.4 Electrophysiology Method (manual whole-cell patch clamp). The format is cell-based. As to conditions: Electrophysiology Method (TABLE 1). The gist of the method: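 Manual whole-cell patch clamp on HEK293 cells stably expressing rat Kir3.1/3.4, with GTPγS in the pipette. Cells were held at −60 mV and stepped to +60 mV, then ramped to −140 mV every 10 s. Steady-state inhibition at −140 mV was measured after subtracting leak recorded in zero-K+ bath.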
For orientation: Patch clamp records ionic current or voltage across a cell membrane.
Turning to `CN1CCC(NCC2CCN(c3ncnc4scc(-c5ccccc5)c34)CC2)CC1` [Example 97, 1-methyl-N-[[1-(5-phenylthieno[2,3-d]pyrimidin-4-yl)-4-piperidyl]methyl]piperidin-4-amine], the IC50 (as a rule, the midpoint of a concentration-inhibition curve) was < 500 nM. For `CN1CCC(N(C)C(=O)C2CCN(c3ncnc4scc(-c5ccccc5)c34)CC2)C1` (stereo not drawn) [Example 249] the value was < 500 nM. In the case of `CNC(=O)C1CCCN(c2nc(N3CCC(CN(C)C4CCN(C)C4)CC3)c3c(-c4ccccc4)csc3n2)C1` (stereo not drawn) [Example 227] it was < 500 nM; in that of “N,N-dimethyl-5-phenyl-thieno[2,3-d]pyrimidine-6-carboxamide [Example 339]”, < 500 nM. As to `c1ccc(-c2csc3ncnc(N4CCC(CN5CCOC(c6ccccc6)C5)CC4)c23)cc1` (stereo not drawn) [Example 56, 2-phenyl-4-[[1-(5-phenylthieno[2,3-d]pyrimidin-4-yl)-4-piperidyl]methyl]morpholine], the concentration for half-maximal inhibition (IC50) was < 500 nM. For `COCCNCC1CCN(c2nc(NCCN3CCCC3)nc3scc(-c4ccccc4)c23)CC1` [Example 109] the value was 500 to 3000 nM; for `CN(C)CCN(C)CC1CCN(c2ncnc3scc(-c4ccccc4)c23)CC1` [Example 71, N,N,N′-trimethyl-N′-[[1-(5-phenylthieno[2,3-d]pyrimidin-4-yl)-4-piperidyl]methyl]ethane-1,2-diamine], < 500 nM; for `NC(=O)C1CCN(c2nc(N3C4CCC3CC(NC3CCC3)C4)c3c(-c4ccccc4)csc3n2)C1` (stereo not drawn) [Example 337, 1-[4-[3-(cyclobutylamino)-8-azabicyclo[3.2.1]octan-8-yl]-5-phenyl-thieno[2,3-d]pyrimidin-2-yl]pyrrolidine-3-carboxamide], 500 to 3000 nM.

In turn, `COCC1CCN(c2nc(CC(=O)N3CCCC3)nc3scc(-c4ccccc4)c23)CC1` [Example 183, 2-[4-[4-(methoxymethyl)-1-piperidyl]-5-phenyl-thieno[2,3-d]pyrimidin-2-yl]-1-pyrrolidin-1-yl-ethanone] displayed an IC50 of 500 to 3000 nM. `O=C1CN(CCOCC2CCN(c3ncnc4scc(-c5ccccc5)c34)CC2)CCN1` [Example 28, 4-[2-[[1-(5-phenylthieno[2,3-d]pyrimidin-4-yl)-4-piperidyl]methoxy]ethyl]piperazin-2-one] returned an IC50 of 500 to 3000 nM. For `c1ccc(-c2csc3ncnc(N4CC5C(COCCN6CCOCC6)C5C4)c23)cc1` (stereo not drawn) [Example 38, 4-[2-[[3-(5-phenylthieno[2,3-d]pyrimidin-4-yl)-3-azabicyclo[3.1.0]hexan-6-yl]methoxy]ethyl]morpholine] the value was 500 to 3000 nM; for `CN1CCC(N(C)CC2CCN(c3nc(CN4CCCC4=O)nc4scc(-c5ccccc5)c34)CC2)C1` (stereo not drawn) [Example 244, 1-[[4-[4-[[methyl-(1-methylpyrrolidin-3-yl)amino]methyl]-1-piperidyl]-5-phenyl-thieno[2,3-d]pyrimidin-2-yl]methyl]pyrrolidin-2-one], < 500 nM. In the case of `COCC1CCN(c2nc(NCCC3CCCN3C)nc3scc(C4CCCCC4)c23)CC1` (stereo not drawn) [Example 177] it was 500 to 3000 nM; in that of `CN(C)C(=O)c1cccc(-c2csc3ncnc(N4CCC(COCCN5CCCC5)CC4)c23)c1` [Example 332], 500 to 3000 nM; in that of `CN(C)C(=O)c1sc2ncnc(N3C4CCC3CC(N3CCCC3)C4)c2c1-c1ccccc1` (stereo not drawn) [Example 353, N,N-dimethyl-5-phenyl-4-(3-pyrrolidin-1-yl-8-azabicyclo[3.2.1]octan-8-yl)thieno[2,3-d]pyrimidine-6-carboxamide], < 500 nM.

In the case of `CN1CCN(c2nc(N3CCC(CNCCC4CCCN4C)CC3)c3c(-c4ccccc4)csc3n2)CC1` (stereo not drawn) [Example 114], the half-maximal inhibitory concentration (IC50) was 500 to 3000 nM.

In the case of `c1ccc(-c2csc3ncnc(N4CCC(COc5cccnc5)CC4)c23)cc1` [Example 180], the IC50 was < 500 nM. For `c1ccc(-c2csc3ncnc(N4CCC(CN5CCC(N6CCCC6)C5)CC4)c23)cc1` (stereo not drawn) [Example 76, 5-phenyl-4-[4-[(3-pyrrolidin-1-ylpyrrolidin-1-yl)methyl]-1-piperidyl]thieno[2,3-d]pyrimidine] the value was < 500 nM.
